The results in this text go back to ChEMBL document CHEMBL4041518, “Novel tacrine-1,2,3-triazole hybrids: In vitro, in vivo biological evaluation and docking study of cholinesterase inhibitors” (Eur J Med Chem, 2017).

The structures appear in SMILES notation. Active and inactive are the calls of the source. The rule behind the calls is not given here. Some results are limits rather than exact numbers.

Test [1] addresses Cholinesterase (Equus caballus) (UniProt P81908). As to the kind of experiment: Potency index, ratio of rivastigmine IC50 to compound IC50 for equine serum BuChE.
The target of test [2] is T1, Cholinesterase (Equus caballus, UniProt P81908).
Description: Inhibition of equine serum BuChE using butyrylthiocholine iodide as substrate preincubated for 15 mins followed by substrate addition measured after 20 mins by Ellman's method
Test [3] addresses T2, Acetylcholinesterase (Electrophorus electricus, UniProt O42275).
Description: Inhibition of electric eel AChE using acetylthiocholine iodide as substrate preincubated for 15 mins followed by substrate addition measured after 20 mins by Ellman's method
In test [4] the target is Acetylcholinesterase (Electrophorus electricus) (UniProt O42275). As to the kind of experiment: Potency index, ratio of rivastigmine IC50 to compound IC50 for electric eel AChE.
Test [5] can be described thus: Antioxidant activity assessed as DPPH radical scavenging activity incubated under dark condition for 30 mins by UV-Visible spectrophotometric method. It counts as functional. In general terms: DPPH is a stable violet radical that fades when it is reduced.
For test [6], the system named is Rattus norvegicus. As to the kind of experiment: Reversal of scopolamine-induced memory impairment in Wistar albino rat assessed as change in swimming speed during 4 days training period at 5 to 20 mg/kg, ip administered 60 mins prior to test for 4 consecutive days followed by scopolamine challenge 30 mins prior to test by Morris water maze test. The format is functional, organism-based.

Test [7] has as its system PC-12. In words: Neuroprotective activity against H2O2-induced cell death in rat PC12 cells assessed as cell viability at 50 uM preincubated for 3 hrs followed by H2O2 addition measured after 24 hrs by MTT assay relative to control. The format is functional. As to conditions: read-out: Activity.
Test [8] relates to Rattus norvegicus. In words: Reversal of scopolamine-induced memory impairment in Wistar albino rat assessed as increase in time spent in target quadrant at 5 to 20 mg/kg, ip administered for 4 consecutive days 60 mins prior to test followed by scopolamine challenge 30 mins prior to test measured on day 5 by Morris water maze test. It counts as functional, organism-based.
In test [9] the test system is PC-12. In words: Neuroprotective activity against H2O2-induced cell death in rat PC12 cells assessed as cell viability at 100 uM preincubated for 3 hrs followed by H2O2 addition measured after 24 hrs by MTT assay relative to control. The format is functional. As to conditions: read-out: Activity. For orientation: Formazan colour is commonly taken as a measure of viable cells.

For test [10], the system named is Rattus norvegicus. In words: Reversal of scopolamine-induced memory impairment in Wistar albino rat assessed as decrease in traveled distance during 4 days training period at 5 to 20 mg/kg, ip administered 60 mins prior to test for 4 consecutive days followed by scopolamine challenge 30 mins prior to test by Morris water maze test. The format is functional, organism-based.

Test [11] relates to Rattus norvegicus. As to the kind of experiment: Reversal of scopolamine-induced memory impairment in Wistar albino rat assessed as decrease in escape latency time during 4 days training period at 5 to 20 mg/kg, ip administered 60 mins prior to test for 4 consecutive days followed by scopolamine challenge 30 mins prior to test by Morris water maze test. It counts as functional, organism-based.

Test [12] deals with T47D. As to the kind of experiment: cells. To be noted: Homo sapiens, 72 h.
Description: Cytotoxicity against human T47D cells assessed as reduction in cell viability after 72 hrs by MTT assay
The test system of test [13] is MDA-MB-231. In words: cells. As to conditions: Homo sapiens, MDA-MB-231, 72 h.
Description: Cytotoxicity against human MDA-MB-231 cells assessed as reduction in cell viability after 72 hrs by MTT assay
For test [14], the system named is MCF7. In words: cells. To be noted: Homo sapiens, MCF7, 72 h.
Description: Cytotoxicity against human MCF7 cells assessed as reduction in cell viability after 72 hrs by MTT assay
The subject of test [15] is PC-12. As to the kind of experiment: Neuroprotective activity against H2O2-induced cell death in rat PC12 cells assessed as cell viability at 10 uM preincubated for 3 hrs followed by H2O2 addition measured after 24 hrs by MTT assay relative to control. The format is functional. To be noted: read-out: Activity.
For test [16], the target named is T2, Acetylcholinesterase. As to the kind of experiment: Mixed-type inhibition of electric eel AChE using acetylthiocholine iodide as substrate preincubated for 15 mins followed by substrate addition measured after 20 mins by Lineweaver-Burk plot analysis.
For test [17], the target named is T1, Cholinesterase. As to the kind of experiment: Mixed-type inhibition of equine serum BuChE using butyrylthiocholine iodide as substrate preincubated for 15 mins followed by substrate addition measured after 20 mins by Lineweaver-Burk plot analysis.

Chain of Acetylcholinesterase (Electrophorus electricus) (O42275 24-633 limits assumed): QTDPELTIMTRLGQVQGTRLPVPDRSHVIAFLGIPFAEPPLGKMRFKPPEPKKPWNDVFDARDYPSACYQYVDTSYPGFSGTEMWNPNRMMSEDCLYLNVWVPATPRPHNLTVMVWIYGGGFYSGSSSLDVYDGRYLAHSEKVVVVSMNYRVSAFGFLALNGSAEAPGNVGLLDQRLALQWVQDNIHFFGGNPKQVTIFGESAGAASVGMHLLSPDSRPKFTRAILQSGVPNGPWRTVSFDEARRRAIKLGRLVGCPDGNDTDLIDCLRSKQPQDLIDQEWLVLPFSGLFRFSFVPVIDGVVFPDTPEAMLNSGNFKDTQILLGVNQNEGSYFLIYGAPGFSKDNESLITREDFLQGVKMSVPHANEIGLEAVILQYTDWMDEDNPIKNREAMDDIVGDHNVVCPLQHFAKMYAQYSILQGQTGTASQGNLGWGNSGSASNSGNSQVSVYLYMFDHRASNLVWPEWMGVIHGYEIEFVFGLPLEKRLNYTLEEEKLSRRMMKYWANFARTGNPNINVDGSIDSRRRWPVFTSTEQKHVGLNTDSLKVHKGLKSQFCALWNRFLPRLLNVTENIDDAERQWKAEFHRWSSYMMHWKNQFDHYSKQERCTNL
Chain of Cholinesterase (Equus caballus) (P81908 whole entry): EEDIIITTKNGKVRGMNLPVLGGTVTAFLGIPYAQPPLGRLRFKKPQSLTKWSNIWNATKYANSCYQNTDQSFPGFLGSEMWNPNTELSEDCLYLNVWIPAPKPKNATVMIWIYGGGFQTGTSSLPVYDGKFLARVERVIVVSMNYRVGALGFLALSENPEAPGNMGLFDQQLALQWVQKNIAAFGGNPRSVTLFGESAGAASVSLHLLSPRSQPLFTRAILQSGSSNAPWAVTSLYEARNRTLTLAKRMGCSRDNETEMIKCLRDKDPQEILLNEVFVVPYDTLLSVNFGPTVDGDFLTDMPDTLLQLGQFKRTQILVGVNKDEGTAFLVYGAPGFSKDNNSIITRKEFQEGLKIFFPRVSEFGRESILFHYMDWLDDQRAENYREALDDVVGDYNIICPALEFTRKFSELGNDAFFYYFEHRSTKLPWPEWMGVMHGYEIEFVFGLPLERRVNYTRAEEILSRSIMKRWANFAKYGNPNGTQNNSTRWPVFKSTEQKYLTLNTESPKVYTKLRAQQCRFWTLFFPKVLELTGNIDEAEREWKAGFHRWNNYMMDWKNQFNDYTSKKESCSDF
T1 sequence (P81908 whole entry): as above
T2 sequence (O42275 whole entry): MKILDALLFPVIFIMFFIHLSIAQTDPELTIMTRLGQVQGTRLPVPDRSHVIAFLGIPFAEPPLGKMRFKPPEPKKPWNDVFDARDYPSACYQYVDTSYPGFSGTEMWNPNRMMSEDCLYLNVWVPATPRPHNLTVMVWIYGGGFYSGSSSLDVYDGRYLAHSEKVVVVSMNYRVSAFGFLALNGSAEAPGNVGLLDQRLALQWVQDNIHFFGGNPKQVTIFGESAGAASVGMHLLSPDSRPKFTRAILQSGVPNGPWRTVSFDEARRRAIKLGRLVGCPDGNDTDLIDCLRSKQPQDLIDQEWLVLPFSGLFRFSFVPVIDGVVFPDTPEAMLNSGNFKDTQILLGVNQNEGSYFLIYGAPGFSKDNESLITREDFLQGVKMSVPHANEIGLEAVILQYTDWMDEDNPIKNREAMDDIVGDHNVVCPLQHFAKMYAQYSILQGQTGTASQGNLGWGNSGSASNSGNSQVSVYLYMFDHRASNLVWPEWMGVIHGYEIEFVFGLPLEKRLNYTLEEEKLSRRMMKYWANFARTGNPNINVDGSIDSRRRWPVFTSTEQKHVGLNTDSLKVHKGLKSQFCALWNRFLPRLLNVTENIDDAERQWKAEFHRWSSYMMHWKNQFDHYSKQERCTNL

With `Clc1ccc2nc3c(c(NCc4cn(Cc5ccccc5)nn4)c2c1)CCCC3`, the figures for the Ratio IC50 in test [1] and in test [4] were 2 to 140 and 3 to 21, respectively. Moreover, the IC50 in test [2] was more than 5 µM; in test [3], 2.39 µM.
`Cc1ccc(Cn2cc(CNc3c4c(nc5ccc(Cl)cc35)CCCC4)nn2)cc1`: the Ratio IC50 in [1] is 2 to 140; in [4], 3 to 21. In addition, the figures for the IC50 in test [2] and in [3] were 0.747 µM and 0.768 µM, respectively. Also, the outcome in test [5] was inactive.
For the compound `Fc1ccc(Cn2cc(CNc3c4c(nc5ccc(Cl)cc35)CCCC4)nn2)cc1`, the Ratio IC50 lay in the range of 2 to 140 in [1] and 3 to 21 in test [4]. For the same compound, the concentration for half-maximal inhibition (IC50) in [2] was found to be 0.721 µM; in [3], 1.44 µM.
On the same counts, the results for `Cc1ccc(Cn2cc(CNc3c4c(nc5ccccc35)CCCC4)nn2)cc1` are 2 to 140, 3 to 21, 0.072 µM and 0.621 µM.
For `Clc1ccc(Cn2cc(CNc3c4c(nc5cc(Cl)ccc35)CCCC4)nn2)cc1`, in that order: 2 to 140, 3 to 21, more than 5 µM and 0.983 µM.
As for `COc1ccc(Cn2cc(CNc3c4c(nc5ccc(Cl)cc35)CCCC4)nn2)cc1`, the result in test [6] and in test [5] was inactive. For the same compound, the viability at 50 µM in test [7] came out at 73.5%. The Ratio IC50 in test [1] lay in the range of 2 to 140; in test [4], 3 to 21. In addition, the outcome in test [8], in [10] and in test [11] was Active. Moreover, in test [9], the viability at 100 µM was determined as 74.8%. The IC50 in [12] is more than 100 µM; in test [2], 1.85 µM; in [3], 0.521 µM; in [13], more than 100 µM; in test [14], more than 100 µM. The viability at 10 µM in test [15] turned out to be 65.4%. The same compound displayed a Ki in [16] of 0.94 µM.
Take `Cc1ccc(Cn2cc(CNc3c4c(nc5cc(Cl)ccc35)CCCC4)nn2)cc1`: the Ratio IC50 in test [1] was in the range of 2 to 140; in test [4], 3 to 21. Further, the IC50 in test [2] turned out to be 0.065 µM; in [3] it was 1.11 µM.
As to `Fc1ccc(Cn2cc(CNc3c4c(nc5cc(Cl)ccc35)CCCC4)nn2)cc1`, the Ratio IC50 fell in the range of 2 to 140 in test [1] and 3 to 21 in [4]. Moreover, the IC50 turned out to be 80 µM in [12]; 0.216 µM in test [2]; 2.28 µM in test [3]; 83.4 µM in test [13]; 87.5 µM in test [14].
Turning to `Clc1ccc(Cn2cc(CNc3c4c(nc5ccccc35)CCCC4)nn2)cc1`, the Ratio IC50 in test [1] lay in the range of 2 to 140; in test [4] it was 3 to 21. The half-maximal inhibitory concentration (IC50) is 0.151 µM in test [2] and 1.97 µM in [3]. Moreover, the result in [5] was inactive.
As for `COc1ccc(Cn2cc(CNc3c4c(nc5cc(Cl)ccc35)CCCC4)nn2)cc1`, the Ratio IC50 lay within 2 to 140 in [1] and 3 to 21 in test [4]. In addition, the IC50 was 0.115 µM in test [2] and 0.737 µM in test [3].
On to `Clc1ccc(Cn2cc(CNc3c4c(nc5ccc(Cl)cc35)CCCC4)nn2)cc1`, for which the Ratio IC50 is 2 to 140 in test [1] and 3 to 21 in test [4]. For the same compound, the IC50 in test [2] was determined as 3.94 µM; in test [3], 1.96 µM.
For the compound `c1ccc(Cn2cc(CNc3c4c(nc5ccccc35)CCCC4)nn2)cc1`, the Ratio IC50 in [1] was in the range of 2 to 140; in [4] it was 3 to 21. Besides, the IC50 is 62.9 µM in [12]; 0.18 µM in [2]; 3.3 µM in test [3]; 81.4 µM in [13]; 97.1 µM in test [14].
As to `Fc1ccc(Cn2cc(CNc3c4c(nc5ccccc35)CCCC4)nn2)cc1`, the Ratio IC50 in [1] lay in the range of 2 to 140; in test [4] it was 3 to 21. Also, the IC50 is more than 100 µM in test [12]; 0.059 µM in test [2]; 2.38 µM in test [3]; more than 100 µM in test [13]; more than 100 µM in test [14].
For the compound `Clc1ccc2c(NCc3cn(Cc4ccccc4)nn3)c3c(nc2c1)CCCC3`, the Ratio IC50 is 2 to 140 in test [1] and 3 to 21 in test [4]. Besides, the IC50 in test [12] was 97.3 µM; in test [2] it was 0.197 µM; in test [3], 2.32 µM; in test [13] it was more than 100 µM; in test [14], more than 100 µM.
On to `COc1ccc(Cn2cc(CNc3c4c(nc5ccccc35)CCCC4)nn2)cc1`, for which the Ratio IC50 lay in the range of 2 to 140 in [1] and 3 to 21 in test [4]. Also, the IC50 was 94.1 µM in [12]; 0.055 µM in test [2]; 2 µM in test [3]; more than 100 µM in [13]; more than 100 µM in [14]. The compound also came in with a Ki in test [17] of 0.121 µM.

In general, IC50 refers to the point on the concentration scale where inhibition reaches its midpoint. Low values mean inhibition by little substance, high ones a need for much substance. As usually defined, the Ki is a dissociation constant, usually derived from enzyme kinetics or from competition with a known ligand.
